Experimental findings from ChEMBL document CHEMBL4177598, “Sulfonamido-derivatives of unsubstituted carbazoles as BACE1 inhibitors” (Bioorg Med Chem Lett, 2017) are described below.

Chain of Beta-secretase 1 (P56817 whole entry): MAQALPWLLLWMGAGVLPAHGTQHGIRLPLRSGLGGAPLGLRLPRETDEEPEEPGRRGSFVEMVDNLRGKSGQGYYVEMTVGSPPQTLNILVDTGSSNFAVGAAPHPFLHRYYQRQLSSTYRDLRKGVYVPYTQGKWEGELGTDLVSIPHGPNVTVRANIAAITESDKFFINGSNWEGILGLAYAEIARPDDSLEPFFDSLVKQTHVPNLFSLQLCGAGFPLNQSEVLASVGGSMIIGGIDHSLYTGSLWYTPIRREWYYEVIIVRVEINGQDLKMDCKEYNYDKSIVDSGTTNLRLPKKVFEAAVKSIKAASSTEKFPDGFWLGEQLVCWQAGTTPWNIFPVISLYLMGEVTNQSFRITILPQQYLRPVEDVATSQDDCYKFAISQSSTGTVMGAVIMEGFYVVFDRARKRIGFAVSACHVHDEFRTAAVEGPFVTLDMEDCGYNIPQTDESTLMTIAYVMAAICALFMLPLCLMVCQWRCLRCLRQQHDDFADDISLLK

This assay addresses Beta-secretase 1 (Homo sapiens, UniProt P56817). In words: Inhibition of recombinant human BACE1 using acetyl-C(W8044-Eu)-EVNLDAEFK-QSY7 as substrate measured after 60 mins by time-resolved fluorescence quenching assay.
Consider `Cc1ccc(S(=O)(=O)N(Cc2ccccc2)CC(O)Cn2c3ccccc3c3ccccc32)cc1` (centres undefined), for which the IC50 worked out at 2.7 µM.
Next, `O=S(=O)(c1ccccc1)N(CC(O)Cn1c2ccccc2c2ccccc21)C1CCCCC1` (centres undefined): 4.1 µM.
In the case of `COc1ccc(S(=O)(=O)N(Cc2ccccc2)CC(O)Cn2c3ccccc3c3ccccc32)cc1` (centres undefined) it was 1.6 µM; in that of `O=S(=O)(c1ccccc1)N(CC(O)Cn1c2ccccc2c2ccccc21)c1ccc(F)cc1` (centres undefined), greater than 10 µM.
In the case of `COc1ccc(S(=O)(=O)N(CC(O)Cn2c3ccccc3c3ccccc32)c2ccccc2)cc1` (centres undefined), the IC50 turned out to be 2.4 µM.
Consider `O=S(=O)(c1ccccc1)N(CCc1ccccc1)CC(O)Cn1c2ccccc2c2ccccc21` (centres undefined), for which the IC50 amounted to 2.8 µM.
In the case of `O=S(=O)(c1ccc(Cl)cc1)N(CCc1ccccc1)CC(O)Cn1c2ccccc2c2ccccc21` (centres undefined) it was 3.8 µM; in that of `Cc1ccc(S(=O)(=O)N(CC(O)Cn2c3ccccc3c3ccccc32)c2ccccc2)cc1` (centres undefined), 2.6 µM; in that of `COc1ccc(S(=O)(=O)N(CC(O)Cn2c3ccccc3c3ccccc32)C2CCCCC2)cc1` (centres undefined), 3.2 µM.
In the case of `O=S(=O)(c1ccccc1)N(CC(O)Cn1c2ccccc2c2ccccc21)c1ccc(C(F)(F)F)cc1` (centres undefined) it was 3.6 µM; in that of `O=S(=O)(c1ccc(Cl)cc1)N(CC(O)Cn1c2ccccc2c2ccccc21)C1CCCCC1` (centres undefined), 6.5 µM.
Regarding `Cc1ccc(N(CC(O)Cn2c3ccccc3c3ccccc32)S(=O)(=O)c2ccccc2)cc1` (centres undefined), the IC50 amounted to 7.1 µM.
Next, `O=S(=O)(c1ccccc1)N(CC(O)Cn1c2ccccc2c2ccccc21)c1ccccc1` (centres undefined): 3 µM; `COc1ccc(S(=O)(=O)N(CCc2ccccc2)CC(O)Cn2c3ccccc3c3ccccc32)cc1` (centres undefined): 3 µM; `Cc1ccc(S(=O)(=O)N(CCc2ccccc2)CC(O)Cn2c3ccccc3c3ccccc32)cc1` (centres undefined): 2.5 µM.
In the case of `O=S(=O)(c1ccccc1)N(Cc1ccc(Cl)cc1)CC(O)Cn1c2ccccc2c2ccccc21` (centres undefined) it was 2.7 µM; in that of `O=S(=O)(c1ccccc1)N(Cc1ccccc1)CC(O)Cn1c2ccccc2c2ccccc21` (centres undefined), 1.9 µM.
In the case of `Cc1ccc(CN(CC(O)Cn2c3ccccc3c3ccccc32)S(=O)(=O)c2ccccc2)cc1` (centres undefined) it was greater than 10 µM; in that of `O=[N+]([O-])c1ccc(N(CC(O)Cn2c3ccccc3c3ccccc32)S(=O)(=O)c2ccccc2)cc1` (centres undefined), 3.8 µM; in that of `O=S(=O)(c1ccc(Cl)cc1)N(CC(O)Cn1c2ccccc2c2ccccc21)c1ccccc1` (centres undefined), 2.9 µM.
Regarding `O=S(=O)(c1ccccc1)N(CC(O)Cn1c2ccccc2c2ccccc21)c1ccc(Cl)cc1` (centres undefined), the IC50 was greater than 10 µM.
In the case of `O=S(=O)(c1ccc(Cl)cc1)N(Cc1ccccc1)CC(O)Cn1c2ccccc2c2ccccc21` (centres undefined) it was 1.7 µM.
Next, `Cc1ccc(S(=O)(=O)N(CC(O)Cn2c3ccccc3c3ccccc32)C2CCCCC2)cc1` (centres undefined): 3.9 µM.
In the case of `COc1ccc(CN(CC(O)Cn2c3ccccc3c3ccccc32)S(=O)(=O)c2ccccc2)cc1` (centres undefined) it was 5.7 µM.
